Assay results: patent US12077503B2, “Substituted cyclic amides and their use as herbicides” (FMC CORPORATION, priority 2015, dated 2024)

Columns and labels:
Type in all cases: in vivo
Kochia (Kochia scoparia) [1] = experiment: Test A preemergence; details: Bassia scoparia, pre-emergence, 240 h
Procedure, shortened: (§1)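 Greenhouse, ~10 d after spray; visual injury vs untreated controls, 0 = no effect, 100 = complete control. Preemergence: directed soil spray over planted seeds. Postemergence: plants 2–10 cm, 1–2 leaf stage. Loam/sand blend. Compound in non-phytotoxic solvent with surfactant.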

[2] = test system: barnyardgrass (Echinochloa crus-galli); experiment: Test A preemergence; details: Echinochloa crus-galli, pre-emergence, 240 h
Procedure, shortened: as §1

[3] = test system: giant foxtail (Setaria faberii); experiment: Test A preemergence; details: Setaria faberi, pre-emergence, 240 h
Procedure, shortened: as §1

[4] = test system: pigweed (Amaranthus retroflexus); experiment: Test A preemergence; details: Amaranthus retroflexus, pre-emergence, 240 h
[5] = test system: ragweed (common ragweed, Ambrosia elatior); experiment: Test A preemergence; details: Ambrosia artemisiifolia, pre-emergence, 240 h
Procedure, shortened: as §1

[6] = test system: ryegrass, Italian (Italian ryegrass, Lolium multiflorum); experiment: Test A preemergence; details: Lolium multiflorum, pre-emergence, 240 h
Procedure, shortened: as §1

[7] = test system: Galium (catchweed bedstraw, Galium aparine); experiment: Test A postemergence; details: Galium, post-emergence, 240 h, read-out: Plant response rating, Galium
Procedure, shortened: as §1

Kochia (Kochia scoparia) [8] = experiment: Test A postemergence; details: Bassia scoparia, post-emergence, 240 h, read-out: Plant response rating, Kochia
Procedure, shortened: as §1

[9] = test system: barnyardgrass (Echinochloa crus-galli); experiment: Test A postemergence; details: Echinochloa crus-galli, post-emergence, 240 h, read-out: Plant response rating, Barnyardgrass
Procedure, shortened: as §1

[10] = test system: blackgrass (Alopecurus myosuroides); experiment: Test A postemergence; details: Alopecurus myosuroides, post-emergence, 240 h, read-out: Plant response rating, Blackgrass
Procedure, shortened: as §1

corn (Zea mays) = experiment: Test A postemergence; details: Zea mays, post-emergence, 240 h
Procedure, shortened: as §1

[11] = test system: giant foxtail (Setaria faberii); experiment: Test A postemergence; details: Setaria faberi, post-emergence, 240 h, read-out: Plant response rating, Foxtail, Giant
Procedure, shortened: as §1

[12] = test system: pigweed (Amaranthus retroflexus); experiment: Test A postemergence; details: Amaranthus retroflexus, post-emergence, 240 h, read-out: Plant response rating, Pigweed
Procedure, shortened: as §1

[13] = test system: ragweed (common ragweed, Ambrosia elatior); experiment: Test A postemergence; details: Ambrosia artemisiifolia, post-emergence, 240 h, read-out: Plant response rating, Ragweed
Procedure, shortened: as §1

[14] = test system: ryegrass, Italian (Italian ryegrass, Lolium multiflorum); experiment: Test A postemergence; details: Lolium multiflorum, post-emergence, 240 h, read-out: Plant response rating, Ryegrass, Italian
Procedure, shortened: as §1

[15] = test system: wheat (Triticum aestivum); experiment: Test A postemergence; details: Triticum aestivum, post-emergence, 240 h, read-out: Plant response rating, Wheat
Procedure, shortened: as §1

[16] = test system: barnyardgrass (Echinochloa crus-galli); experiment: Test B flooded paddy test; details: Echinochloa crus-galli, 250 g ai/ha, Flood; 0 to 100 scale where 0 is no effect and 100 is complete control; read-out: Barnyardgrass plant response rating
Procedure, shortened: (§2)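 Evaluation by eye, against controls, occurred 13–15 d post-treatment in a greenhouse, using a 0 (no effect) to 100 (complete control) scale. Application was into the paddy water, 3 cm deep over the soil, on 2-leaf plants.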

[17] = test system: ducksalad (Heteranthera limosa); experiment: Test B flooded paddy test; details: Heteranthera limosa, 250 g ai/ha, Flood; 0 to 100 scale where 0 is no effect and 100 is complete control; read-out: Ducksalad plant response rating
Procedure, shortened: as §2

rice (Oryra sativa) = experiment: Test B flooded paddy test; details: Oryza sativa, 250 g ai/ha, Flood; 0 to 100 scale where 0 is no effect and 100 is complete control; read-out: Rice plant response rating
Procedure, shortened: as §2

[18] = test system: sedge, umbrella (small-flower umbrella sedge, Cyperus difformis); experiment: Test B flooded paddy test; details: Cyperus difformis, 250 g ai/ha, Flood; 0 to 100 scale where 0 is no effect and 100 is complete control; read-out: Sedge, Umbrella plant response rating
Procedure, shortened: as §2

[19] = 125 g ai/ha, Postemergence, visual injury after approximately 10 d, 0 to 100 scale where 0 is no effect and 100 is complete control
[20] = 500 g ai/ha, postemergence, visual injury, 0 to 100 scale (0 no effect, 100 complete control), approx. 10 d

CN1CC[C@H](c2ccc(OC(F)(F)F)cc2)[C@@H](C(=O)Nc2cccc(Cl)c2F)C1=O [Compound 1002]
80%: pest or weed control at 500 g/ha ([3]; 500 g ai/ha, preemergence, visual injury rating about 10 d after treatment, 0 to 100 scale (0 no effect, 100 complete control), read-out: Foxtail, Giant plant response rating)
0%: pest or weed control at 125 g/ha (Kochia (Kochia scoparia) [1]; 125 g ai/ha, Preemergence, visual injury rating after approximately 10 d, read-out: Kochia plant response rating (0 to 100 scale, 0 is no effect, 100 is complete control)) | pest or weed control at 500 g/ha (Kochia (Kochia scoparia) [1]; 500 g ai/ha, preemergence, visual injury rating about 10 d after treatment, 0 to 100 scale (0 no effect, 100 complete control), read-out: Kochia plant response rating) | pest or weed control at 125 g/ha ([5]; 125 g ai/ha, Preemergence, visual injury rating after approximately 10 d, read-out: Ragweed plant response rating (0 to 100 scale, 0 is no effect, 100 is complete control)) | pest or weed control at 500 g/ha ([5]; 500 g ai/ha, preemergence, visual injury rating about 10 d after treatment, 0 to 100 scale (0 no effect, 100 complete control), read-out: Ragweed plant response rating) | pest or weed control at 125 g/ha ([6]; 125 g ai/ha, Preemergence, visual injury rating after approximately 10 d, read-out: Ryegrass, Italian plant response rating (0 to 100 scale, 0 is no effect, 100 is complete control)) | pest or weed control at 500 g/ha ([6]; 500 g ai/ha, preemergence, visual injury rating about 10 d after treatment, 0 to 100 scale (0 no effect, 100 complete control), read-out: Ryegrass, Italian plant response rating) | pest or weed control at 125 g/ha [7, 19] | pest or weed control at 500 g/ha [7, 20] | pest or weed control at 125 g/ha (Kochia (Kochia scoparia) [8]; [19]) | pest or weed control at 125 g/ha [10, 19] | pest or weed control at 500 g/ha [10, 20] | Corn plant response rating (crop injury, 0 = no effect, 100 = complete kill) at 125 g/ha (corn (Zea mays); [19]) | Corn plant response rating (crop injury, 0 = no effect, 100 = complete kill) at 500 g/ha (corn (Zea mays); [20]) | pest or weed control at 125 g/ha [11, 19] | pest or weed control at 125 g/ha [12, 19] | pest or weed control at 500 g/ha [12, 20] | pest or weed control at 125 g/ha [13, 19] | pest or weed control at 500 g/ha [13, 20] | pest or weed control at 125 g/ha [14, 19] | pest or weed control at 500 g/ha [14, 20] | plant injury at 125 g/ha [15, 19] | plant injury at 500 g/ha [15, 20] | pest or weed control at 250 g/ha [16] | pest or weed control at 250 g/ha (rice (Oryra sativa)) | pest or weed control at 250 g/ha [18]
20%: pest or weed control at 125 g/ha ([2]; 125 g ai/ha, Preemergence, visual injury rating after approximately 10 d, read-out: Barnyardgrass plant response rating (0 to 100 scale, 0 is no effect, 100 is complete control)) | pest or weed control at 125 g/ha ([4]; 125 g ai/ha, Preemergence, visual injury rating after approximately 10 d, read-out: Pigweed plant response rating (0 to 100 scale, 0 is no effect, 100 is complete control))
90%: pest or weed control at 500 g/ha [9, 20]
30%: pest or weed control at 125 g/ha ([3]; 125 g ai/ha, Preemergence, visual injury rating after approximately 10 d, read-out: Foxtail, Giant plant response rating (0 to 100 scale, 0 is no effect, 100 is complete control))
70%: pest or weed control at 500 g/ha ([2]; 500 g ai/ha, preemergence, visual injury rating about 10 d after treatment, 0 to 100 scale (0 no effect, 100 complete control), read-out: Barnyardgrass plant response rating)
60%: pest or weed control at 250 g/ha [17]
40%: pest or weed control at 500 g/ha (Kochia (Kochia scoparia) [8]; [20])
50%: pest or weed control at 500 g/ha ([4]; 500 g ai/ha, preemergence, visual injury rating about 10 d after treatment, 0 to 100 scale (0 no effect, 100 complete control), read-out: Pigweed plant response rating) | pest or weed control at 125 g/ha [9, 19] | pest or weed control at 500 g/ha [11, 20]
